Results published in patent US7829560B2, “1,4-disubstituted naphthalenes as inhibitors of P38 MAP kinase” (Arqule, Inc., priority 2004, dated 2010).
pIC50: −log10 of the molar value. Values joined by “and” are separate entries in the source; they are usually repeats but may differ in a detail not shown here. Identical values can stand only once.

Molecular target: T1, p38α (Homo sapiens, UniProt Q16539)
T1 construct: p38 MAP Kinases are recombinant human full-length proteins with an amino-terminal GST fusion; GST (N); purchased Upstate Biotechnology Inc; host or cells: E. coli
T1 sequence (Q16539 whole entry, the tested form may be a part): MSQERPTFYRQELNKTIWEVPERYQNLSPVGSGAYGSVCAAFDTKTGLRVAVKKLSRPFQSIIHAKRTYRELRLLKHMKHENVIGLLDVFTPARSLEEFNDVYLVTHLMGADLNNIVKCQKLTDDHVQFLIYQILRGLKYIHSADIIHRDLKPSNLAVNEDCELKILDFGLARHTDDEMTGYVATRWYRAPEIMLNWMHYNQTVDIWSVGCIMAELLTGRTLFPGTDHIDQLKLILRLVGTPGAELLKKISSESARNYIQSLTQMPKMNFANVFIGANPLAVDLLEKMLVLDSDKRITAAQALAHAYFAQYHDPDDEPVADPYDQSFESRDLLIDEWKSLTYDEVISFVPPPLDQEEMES
Test: p38 MAP Kinase assay: inhibition of ATF2 phosphorylation, ELISA
Format: biochemical
Conditions: for inhibition at 10 µM: substrate ATF2, read-out: [ENZ] P38 ALPHA, PCT INH, ELISA (10 uM;ATF2) (Percent); for pIC50: ATF2 phosphorylation, read-out: [ENZ] P38 ALPHA, IC50, ELISA
Text: Compounds of the invention are screened for the ability to inhibit ATF2 phosphorylation by p38 MAP Kinase in vitro. The ability of compounds to inhibit ATF2 phosphorylation in this in vitro assay is correlated with the inhibition of p38 MAP Kinase and TNFα expression in vivo, and is therefore an indicator of potential in vivo therapeutic activity (Raingeaud, J., et al, J. Biol. Chem., 270: 7420-7426, 1995, Brinkman, M. N., et al, J. Biol. Chem. 274: 30882-30886, 1999 and Fuchs, S. Y. et al, J. Biol. Chem. 275: 12560-12564, 2000).
Materials: All kinases and the substrate ATF2 are acquired from Upstate Biotechnology Inc. p38 MAP Kinases are recombinant human full-length proteins with an amino-terminal GST fusion, expressed in and purified from E. coli. ATF2 is a GST fusion protein containing amino acids 19-96 of human ATF2 expressed in E. coli. All proteins are aliquoted and stored at −80° C.
Methods: p38 MAP Kinase assays are performed using an assay buffer containing 25 mM HEPES, pH 7.5, 10 mM MgCl2, 2 mM DTT, 20 mM β-glycerophosphate, 0.1 mM Na3VO4, 40 μM ATP and 1.25 μM of ATF2 and in the absence or presence of 1% human serum albumin, Method I and II, respectively, with 0.4-6 ng of protein depending on the kinase used. Compounds are serially diluted in DMSO and 2 μL of test compound at 25× final concentration is used. The vehicle control receives DMSO only. Test compounds are pre-incubated with 20 μl of enzyme in kinase buffer (25 mM HEPES, pH 7.5, 10 mM MgCl2, 2 mM DTT, 20 mM β-glycerophosphate, 0.1 mM Na3VO4 in the absence or presence of 1% human serum albumin, Method I and II, respectively) at room temperature for 15 minutes. […] The reactions are incubated for 30 minutes at 37° C. and terminated by the addition of 18 μl of 200 mM EDTA. An ELISA method (I or II) is used to measure the phosphorylation of ATF2 at Thr 69. Method I: 96-well high binding plates (Corning 3369) are coated with 50 μl of kinase reaction for 1 hour at 37° C. The coated plates are washed with 200 μl washing buffer (25 mM Tris HCl, pH 8.3, 192 mM glycine, 0.1% SDS and 0.05% Tween-20) three times. The plates are then washed three times with SuperBlock in TBS (Pierce, 37535). After blocking, plates are incubated with 50 μl of rabbit anti-phospho-ATF2 antibody (Cell Signaling, 9221L, 1:500) for 30 minutes at 37° C. Plates are washed three times with washing buffer prior to incubation with 50 μl HRP-conjugated goat anti-rabbit antibody (Cell Signaling, 7074, 1:500) for 30 minutes at 37° C. Plates are then washed three times with washing buffer before incubation with 50 μl of Ultra TMB-ELISA (Pierce, 34028) for 8 minutes at room temperature. Finally, 50 ul of phosphoric acid (1 M) is added to stop reactions and plate absorbance is read at 450 nm on a SpectraMax 250 plate reader. Method II: 96-well high binding plates (Corning 3369) are coated with 400 ng of monoclonal antibody against GST-tag (Cell signaling) in 100 μl containing sodium borate (pH 8.3) for 90 minutes at 37° C. The plates are washed with 200 μl washing buffer (25 mM Tris HCl, pH 7.2, 150 mM NaCl and Tween-20) three times and blocked with 200 μl of 5% nonfat milk for 30 minutes at room temperature. The plates are washed three times with washing buffer, 50 μl of stopped kinase reaction are added to each well and incubated for 80 minutes at 37° C. The plates are washed three times with 200 μl washing buffer, and the plates are incubated with 50 μl of rabbit anti-phospho-ATF2 antibody (Cell Signaling, 9221L, 1:500) for 30 minutes at 37° C. Plates are washed three times with washing buffer prior to incubation with 50 μl HRP-conjugated goat anti-rabbit antibody (Cell Signaling, 7074, 1:500) for 30 minutes at 37° C. Plates are washed three times with washing buffer before incubation with 50 μl of Ultra TMB-ELISA (Pierce, 34028) for 25 minutes at room temperature. Finally, 50 μl of phosphoric acid (1 M) is added to stop reactions and plate absorbance is read at 450 nm on a SpectraMax 250 plate reader. […]

Row | Compound | inhibition at 10 µM [%] | pIC50
1 | CCc1ccc(-c2cccc(C(=O)Nc3ccc(OCCN4CCOCC4)c4ccccc34)c2)cc1 [Compound B102] | 21 | < 4.00
2 | O=C(Nc1ccc(OCCN2CCOCC2)c2ccccc12)c1cccc(-c2cc(C(F)(F)F)cc(C(F)(F)F)c2)c1 [Compound B92] | 0 | 
3 | O=C(Nc1ccc(OCCN2CCOCC2)c2ccccc12)c1ccnc(N2CCC(N3CCCCC3)CC2)c1 [Compound B129] | 19.5 | 
4 | O=C(Nc1ccc(OCCN2CCOCC2)c2ccccc12)c1cccc(N2CCCCCCC2)n1 [Compound B135] | 20 | < 4.00
5 | O=C(Nc1ccc(OCCN2CCOCC2)c2ccccc12)c1cccc(-c2ccc(OC(F)(F)F)cc2)c1 [Compound B87, 4′-Trifluoromethoxy-biphenyl-3-carboxylic acid [4-(2-morpholin-4-yl-ethoxy)-naphthalen-1-yl]-amide] | 29 | < 4.00
6 | C[C@@H]1CN(CCOc2ccc(NC(=O)c3ccnc(Cl)c3)c3ccccc23)C[C@H](C)O1 [Compound B8] | 36.5 | 
7 | CN1CCN(CCOc2ccc(NC(=O)c3ccc(-n4ccc(C(F)(F)F)n4)cc3)c3ccccc23)CC1 [Compound B9] | 21 | 
8 | O=C(Nc1ccc(OCCN2CCOCC2)c2ccccc12)c1cccc(-c2cc(F)cc(F)c2)c1 [Compound B103] | 68 | 5.79
9 | Cc1cc(C(=O)Nc2ccc(OCCN3CCOCC3)c3ccccc23)cc(Cl)n1 [Compound B64] | 3 | 
10 | CN1CCN(CCOc2ccc(NC(=O)c3ccnc(N4CCOCC4)c3)c3ccccc23)CC1 [Compound B21] | 19.5 | 
11 | O=C(Nc1ccc(OCCN2CCOCC2)c2ccccc12)c1cccc(N2CCN(c3ccc(F)cc3)CC2)n1 [Compound B139] | 7 | 
12 | O=C(Nc1ccc(OCCN2CCOCC2)c2ccccc12)c1cccc(NCc2ccc(F)cc2)c1 [Compound B170] | 46 | 
13 | O=C(Nc1ccc(OCCN2CCOCC2)c2ccccc12)c1ccnc(N2CCC(Cc3ccccc3)CC2)c1 [Compound B124] | 7 | 
14 | O=C(Nc1ccc(OCCN2CCSCC2)c2ccccc12)c1ccc(-n2cccn2)cc1 [Compound B11] | 24 | 
15 | CN1CCN(CCOc2ccc(NC(=O)c3ccc(CN4CCS(=O)(=O)CC4)cc3)c3ccccc23)CC1 [Compound B13] | 11.5 | 
16 | CC1CCCN(c2cccc(C(=O)Nc3ccc(OCCN4CCOCC4)c4ccccc34)n2)C1 (stereo not shown) [Compound B69] | 34 | 
17 | CN(c1cccc(C(=O)Nc2ccc(OCCN3CCOCC3)c3ccccc23)n1)C1CCCCC1 [Compound B137] | 32 | < 4.00
18 | CCOC(=O)N1CCN(CCOc2ccc(NC(=O)c3cccc(N4CCOCC4)c3)c3ccccc23)CC1 [Compound B15] | 18 | 
19 | CC(C)(C)c1ccc(-c2cccc(C(=O)Nc3ccc(OCCN4CCOCC4)c4ccccc34)c2)cc1 [Compound B106] | 0 | 
20 | O=C(Nc1ccc(OCCN2CCOCC2)c2ccccc12)c1cccc(N2CCc3ccccc3C2)c1 [Compound B168] | 36 | 
21 | CC1CC(C)CN(c2cccc(C(=O)Nc3ccc(OCCN4CCOCC4)c4ccccc34)n2)C1 (stereo not shown) [Compound B141] | 13 | 
22 | O=C(Nc1ccc(OCCN2CCOCC2)c2ccccc12)c1cccc(-c2cccc(OCc3ccccc3)c2)c1 [Compound B119] | 11 | < 4.00

Row | Compound | inhibition at 10 µM [%] | pIC50
23 | O=C(Nc1ccc(OCCN2CCOCC2)c2ccccc12)c1cccc(N2CCC(N3CCCCC3)CC2)n1 [Compound B70] | 14 | 
24 | Cc1cc(C)cc(-c2cccc(C(=O)Nc3ccc(OCCN4CCOCC4)c4ccccc34)c2)c1 [Compound B113] | 29 | < 5.00
25 | COc1ccc(Cl)cc1-c1cccc(C(=O)Nc2ccc(OCCN3CCOCC3)c3ccccc23)c1 [Compound B111] | 50 | 5.30
26 | O=C(Nc1ccc(OCCN2CCOCC2)c2ccccc12)c1cccc(N2CCSC2)n1 [Compound B138] | -36 | 
27 | O=C(Nc1ccc(OCCN2CCOCC2)c2ccccc12)c1cccc(-c2cc(Cl)cc(Cl)c2Cl)c1 [Compound B120] | 39 | < 4.00
28 | O=C(Nc1ccc(OCCN2CCOCC2)c2ccccc12)c1cccc2ccccc12 [Compound B89] | 29 | 
29 | CCN(C)c1cccc(C(=O)Nc2ccc(OCCN3CCOCC3)c3ccccc23)n1 [Compound B148] | 15.5 | 
30 | CC(C)(C)C1CCC(Oc2cc(F)cc(C(=O)Nc3ccc(OCCN4CCOCC4)c4ccccc34)c2)CC1 (stereo not shown) [Compound B216] |  | < 5.00
31 | CC(=O)N1CCN(c2cccc(C(=O)Nc3ccc(OCCN4CCOCC4)c4ccccc34)n2)CC1 [Compound B136] | 10 | 
32 | Cc1ccc(-c2cccc(C(=O)Nc3ccc(OCCN4CCOCC4)c4ccccc34)c2)cc1 [Compound B93] | 34 | < 5.00
33 | O=C(Nc1ccc(OCCN2CCOCC2)c2ccccc12)c1cc(F)cc(C(F)(F)F)c1 [Compound B77] | 28 | 
34 | COc1cc(-c2cccc(C(=O)Nc3ccc(OCCN4CCOCC4)c4ccccc34)c2)cc(OC)c1OC [Compound B112] | 15 | < 4.00
35 | O=C(Nc1ccc(OCCN2CCOCC2)c2ccccc12)c1cccc(/C=C/c2ccccc2)c1 [Compound B98] | 15 | < 5.00
36 | O=C1CN(CCOc2ccc(NC(=O)c3cc(F)cc(N4CCCCC4)c3)c3ccccc23)CCN1 [Compound B164, 3-Fluoro-N-{4-[2-(3-oxo-piperazin-1-yl)-ethoxy]-naphthalen-1-yl}-5-piperidin-1-yl-benzamide] | 83.5 | 6.36 and 6.51
37 | C[C@@H]1CN(CCOc2ccc(NC(=O)c3ccnc(N4CCOCC4)c3)c3ccccc23)C[C@H](C)O1 [Compound B23] | 38 | 
38 | Cc1cccc(C)c1N1CCN(c2cccc(C(=O)Nc3ccc(OCCN4CCOCC4)c4ccccc34)n2)CC1 [Compound B146] | 7.5 | 
39 | O=C(Nc1ccc(OCCN2CCOCC2)c2ccccc12)c1cccc(-c2ccccc2C(F)(F)F)c1 [Compound B97] | 31 | < 5.00
40 | O=C(Nc1ccc(OCCN2CCOCC2)c2ccccc12)c1ccc(CN2CCS(=O)(=O)CC2)cc1 [Compound B18] | 10.5 | 
41 | O=C(Nc1ccc(OCCN2CCCCC2)c2ccccc12)c1ccnc(N2CCOCC2)c1 [Compound B22] | 12.5 | 
42 | O=C(Nc1ccc(OCCN2CCOCC2)c2ccccc12)C1=CC=CC(C(F)(F)F)C1Cl (stereo not shown) [Compound B81] | 6 | 
43 | CC1CCN(c2cccc(C(=O)Nc3ccc(OCCN4CCOCC4)c4ccccc34)n2)CC1 [Compound B143] | 32 | < 4.00
